The nature of assay [1]: Inhibition of recombinant G-alpha subunit (unknown origin) assessed as inhibition of GDP release. On the set-up: species or system Homo sapiens.
Assay [2] concerns the target Guanine nucleotide-binding protein G(I)/G(S)/G(T) subunit beta-1/gamma-2 (Homo sapiens, UniProt P59768+P62873). Nature of the assay: Inhibition of G-protein beta1gamma2 (unknown origin) by flow cytometry. The format is protein-complex assay. (In flow cytometry, cells or beads pass a laser one at a time.)
Assay [3] deals with T1, GNAQ/GNA11 (Homo sapiens, UniProt P50148+P29992).
T1 sequence (P50148 whole entry): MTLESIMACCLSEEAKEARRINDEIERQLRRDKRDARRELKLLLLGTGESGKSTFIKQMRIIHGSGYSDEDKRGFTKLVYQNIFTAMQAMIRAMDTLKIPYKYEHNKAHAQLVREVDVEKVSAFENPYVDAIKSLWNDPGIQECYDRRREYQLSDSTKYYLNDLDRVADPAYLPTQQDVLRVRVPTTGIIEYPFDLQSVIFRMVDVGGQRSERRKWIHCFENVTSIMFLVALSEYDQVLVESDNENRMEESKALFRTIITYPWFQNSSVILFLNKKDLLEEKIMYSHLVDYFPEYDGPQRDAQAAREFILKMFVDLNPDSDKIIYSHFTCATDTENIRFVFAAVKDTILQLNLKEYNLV
T1 sequence (P29992 whole entry): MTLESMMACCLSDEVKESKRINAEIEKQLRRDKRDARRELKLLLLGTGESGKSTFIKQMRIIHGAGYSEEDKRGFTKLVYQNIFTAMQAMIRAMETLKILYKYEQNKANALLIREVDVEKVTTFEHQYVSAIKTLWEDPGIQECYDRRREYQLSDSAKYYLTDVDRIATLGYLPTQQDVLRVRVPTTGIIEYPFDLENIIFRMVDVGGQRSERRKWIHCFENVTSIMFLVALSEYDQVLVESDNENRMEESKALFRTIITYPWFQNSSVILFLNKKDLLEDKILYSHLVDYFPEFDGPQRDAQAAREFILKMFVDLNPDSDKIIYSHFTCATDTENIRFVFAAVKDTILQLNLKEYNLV
In words: Inhibition of G-alphaq/11 in human platelet rich plasma assessed as inhibition of ADP-mediated calcium ion mobilization.

Assay [4] deals with T1, GNAQ/GNA11. Nature of the assay: Inhibition of G-alphaq/11 in human platelet rich plasma assessed as inhibition of ADP-mediated platelet aggregation.

Bridge positions count the residues as written; N and C are the ends. Square brackets hold non-standard residues; d marks the D form. Peptide text beside a SMILES is read from it. Leu(3R-O(AcLeu(3R-OH))) = CC(=O)N[C@H](C(=O)O[C@H](C(C)C)[C@H](N)C(=O)O)[C@H](O)C(C)C; NMeT = CN[C@H](C(=O)O)[C@@H](C)O; dPhLac = O=C(O)[C@H](O)Cc1ccccc1; NMeA = CN[C@@H](C)C(=O)O; NMeDha = C=C(NC)C(=O)O

Sequence of Guanine nucleotide-binding protein G(I)/G(S)/G(T) subunit beta-1/gamma-2 (P59768 2-71 limits assumed): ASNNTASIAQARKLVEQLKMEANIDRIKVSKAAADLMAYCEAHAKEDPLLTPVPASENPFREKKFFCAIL
Sequence of Guanine nucleotide-binding protein G(I)/G(S)/G(T) subunit beta-1/gamma-2 (P62873 2-340 limits assumed): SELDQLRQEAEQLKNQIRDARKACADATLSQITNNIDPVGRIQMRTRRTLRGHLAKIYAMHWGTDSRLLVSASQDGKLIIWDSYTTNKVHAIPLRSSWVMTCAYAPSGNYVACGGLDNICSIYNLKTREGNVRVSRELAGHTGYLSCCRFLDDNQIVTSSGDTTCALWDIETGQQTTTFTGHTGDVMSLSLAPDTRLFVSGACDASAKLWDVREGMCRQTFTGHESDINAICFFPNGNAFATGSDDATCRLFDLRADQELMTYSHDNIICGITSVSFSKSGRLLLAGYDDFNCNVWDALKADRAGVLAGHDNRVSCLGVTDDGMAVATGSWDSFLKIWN

By IC50 is commonly meant the concentration that inhibits the measured activity by half. Turning to `Cc1ccc(C(=O)Nc2ccc(S(=O)(=O)O)c3cc(S(=O)(=O)O)cc(S(=O)(=O)O)c23)cc1NC(=O)c1cccc(NC(=O)Nc2cccc(C(=O)Nc3cc(C(=O)Nc4ccc(S(=O)(=O)O)c5cc(S(=O)(=O)O)cc(S(=O)(=O)O)c45)ccc3C)c2)c1` [SURAMIN], in assay [1], the half-maximal inhibitory concentration (IC50) turned out to be 0.24 µM.

On to `O=C(O)C1CCCCC1c1c2ccc(=O)cc-2oc2cc(O)ccc12` (configuration not stated), for which the IC50 in assay [2] is over 300 µM.

Compound `O=C(O)C1CC23C(Cl)C(Cl)=C(Cl)C(Cl)C2(CC1c1c2ccc(=O)c(O)c-2oc2c(O)c(O)ccc12)C3(Cl)Cl` (configuration not stated) had an IC50 in assay [2] of 0.25 µM.

In assay [2], `O=C(O)C1CCCCC1c1c2ccc(=O)c(O)c-2oc2c(O)c(O)ccc12` (configuration not stated) returned an IC50 of 0.2 µM.

Turning to `C=C1C(=O)N[C@@H](C)C(=O)N(C)[C@@H](C)C(=O)N[C@@H]([C@H](OC(=O)[C@@H](NC(C)=O)[C@H](O)C(C)C)C(C)C)C(=O)N(C)[C@@H]([C@@H](C)OC)C(=O)O[C@H](C)[C@H](NC(C)=O)C(=O)O[C@H](Cc2ccccc2)C(=O)N1C` (Ac-T[dPhLac][NMeDha]A[NMeA][Leu(3R-O(AcLeu(3R-OH)))][NMeT](Me); ester 1-C), the IC50 on GNAQ/GNA11 [3] and on GNAQ/GNA11 [4] was 0.1 to 1 µM each time.

The compound `O=C1OC2(c3ccccc31)c1ccc(O)c(O)c1Oc1c2ccc(O)c1O` returned a half-maximal inhibitory concentration (IC50) in assay [2] of 0.2 µM.

Values taken from ChEMBL document CHEMBL4354836, “Heterotrimeric G Proteins as Therapeutic Targets in Drug Discovery” (J Med Chem, 2020).
